Reference: PMC6576746, “Rational discovery of dual-indication multi-target PDE/Kinase inhibitor for precision anti-cancer therapy using structural systems pharmacology” (PLoS Computational Biology, 2019)

Experiments:
Assay in all cases: biochemical
Parameters in all cases: DiscoverX KinomeScan competition binding assay across human kinases; per cent of control at 10 and 100 uM
[1] = biological target: CAMK1D (Homo sapiens, UniProt Q8IU85); conditions: competition binding, % of control; read-out: Percent Control (100 uM Levosimendan)
Procedure, shortened: (§1)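 Binding is expressed as %control, normalised between positive and negative control signals. The compound (levosimendan) was tested at 10 μM and 100 μM in the DiscoverX KinomeScan competition binding format against human kinases.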

[2] = biological target: T1, S6K1 (Homo sapiens, UniProt P23443); conditions: competition binding, % of control
T1 construct: gene RPS6KB1
T1 sequence (P23443 whole entry): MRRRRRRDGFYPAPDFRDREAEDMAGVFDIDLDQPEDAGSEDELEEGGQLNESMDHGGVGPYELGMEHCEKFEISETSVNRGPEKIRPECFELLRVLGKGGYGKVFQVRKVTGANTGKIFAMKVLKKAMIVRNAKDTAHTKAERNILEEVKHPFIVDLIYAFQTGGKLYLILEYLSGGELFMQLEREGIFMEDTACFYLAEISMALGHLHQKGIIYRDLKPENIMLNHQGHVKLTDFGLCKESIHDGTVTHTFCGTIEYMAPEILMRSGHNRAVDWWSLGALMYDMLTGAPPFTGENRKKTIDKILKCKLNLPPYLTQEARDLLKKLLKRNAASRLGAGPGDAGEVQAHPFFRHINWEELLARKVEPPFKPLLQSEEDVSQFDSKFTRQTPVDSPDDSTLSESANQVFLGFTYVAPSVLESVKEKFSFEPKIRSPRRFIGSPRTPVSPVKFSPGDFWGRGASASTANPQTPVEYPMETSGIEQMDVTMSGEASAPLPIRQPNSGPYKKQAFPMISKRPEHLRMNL
Procedure, shortened: as §1

[3] = biological target: T2, MINK (Homo sapiens, UniProt Q8N4C8); conditions: competition binding, % of control
T2 construct: gene MINK1
T2 sequence (Q8N4C8 whole entry): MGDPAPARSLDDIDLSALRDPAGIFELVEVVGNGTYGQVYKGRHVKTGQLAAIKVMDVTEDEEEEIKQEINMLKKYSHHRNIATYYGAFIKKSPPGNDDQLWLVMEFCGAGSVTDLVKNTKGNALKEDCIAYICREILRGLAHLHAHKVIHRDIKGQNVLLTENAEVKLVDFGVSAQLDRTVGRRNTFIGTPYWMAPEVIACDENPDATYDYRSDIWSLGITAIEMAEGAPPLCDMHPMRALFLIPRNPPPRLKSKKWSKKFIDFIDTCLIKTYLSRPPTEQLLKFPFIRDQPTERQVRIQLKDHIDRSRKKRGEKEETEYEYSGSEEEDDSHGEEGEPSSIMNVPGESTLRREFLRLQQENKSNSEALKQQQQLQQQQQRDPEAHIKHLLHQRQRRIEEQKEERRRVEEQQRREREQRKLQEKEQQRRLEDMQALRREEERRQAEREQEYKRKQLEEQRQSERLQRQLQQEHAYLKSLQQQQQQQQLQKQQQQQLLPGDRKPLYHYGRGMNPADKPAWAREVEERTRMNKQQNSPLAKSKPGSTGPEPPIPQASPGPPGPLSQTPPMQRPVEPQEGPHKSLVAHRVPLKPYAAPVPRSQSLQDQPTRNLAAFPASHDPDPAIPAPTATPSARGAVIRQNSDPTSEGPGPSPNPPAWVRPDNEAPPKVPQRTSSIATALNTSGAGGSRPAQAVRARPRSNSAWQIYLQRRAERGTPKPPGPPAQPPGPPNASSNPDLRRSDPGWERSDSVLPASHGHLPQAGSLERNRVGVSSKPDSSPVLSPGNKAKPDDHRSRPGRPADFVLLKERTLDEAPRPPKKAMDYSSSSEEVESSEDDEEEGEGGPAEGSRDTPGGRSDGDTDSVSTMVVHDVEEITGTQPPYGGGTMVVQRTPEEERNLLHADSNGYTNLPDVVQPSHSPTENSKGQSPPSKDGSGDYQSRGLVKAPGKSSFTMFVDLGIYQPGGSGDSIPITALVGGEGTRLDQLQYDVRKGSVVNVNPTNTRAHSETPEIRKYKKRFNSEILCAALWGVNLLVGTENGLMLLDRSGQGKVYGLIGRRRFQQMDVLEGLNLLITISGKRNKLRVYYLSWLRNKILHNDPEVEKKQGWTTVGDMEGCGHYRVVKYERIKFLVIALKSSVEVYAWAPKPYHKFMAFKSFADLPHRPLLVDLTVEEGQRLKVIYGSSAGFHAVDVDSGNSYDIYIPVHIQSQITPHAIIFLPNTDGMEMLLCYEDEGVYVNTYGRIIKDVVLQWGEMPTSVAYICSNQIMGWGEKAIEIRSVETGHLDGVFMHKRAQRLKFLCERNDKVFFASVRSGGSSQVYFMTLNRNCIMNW
Procedure, shortened: as §1

[4] = biological target: MAP3K1 (Homo sapiens, UniProt Q13233); conditions: competition binding, % of control; read-out: Percent Control (100 uM Levosimendan)
Procedure, shortened: as §1

[5] = biological target: ZAP70 (Homo sapiens, UniProt P43403); conditions: competition binding, % of control; read-out: Percent Control (100 uM Levosimendan)
Procedure, shortened: as §1

[6] = biological target: T3, ABL1(T315I)-nonphosphorylated (Homo sapiens, UniProt P00519, T315I); conditions: competition binding, % of control; read-out: Percent Control (100 uM Levosimendan)
T3 construct: nonphosphorylated
Procedure, shortened: as §1

[7] = biological target: MUSK (Homo sapiens, UniProt O15146); conditions: competition binding, % of control; read-out: Percent Control (100 uM Levosimendan)
Procedure, shortened: as §1

[8] = biological target: T4, PRKR (Homo sapiens, UniProt P19525); conditions: competition binding, % of control; read-out: Percent Control (100 uM Levosimendan)
T4 construct: gene EIF2AK2
T4 sequence (P19525 whole entry): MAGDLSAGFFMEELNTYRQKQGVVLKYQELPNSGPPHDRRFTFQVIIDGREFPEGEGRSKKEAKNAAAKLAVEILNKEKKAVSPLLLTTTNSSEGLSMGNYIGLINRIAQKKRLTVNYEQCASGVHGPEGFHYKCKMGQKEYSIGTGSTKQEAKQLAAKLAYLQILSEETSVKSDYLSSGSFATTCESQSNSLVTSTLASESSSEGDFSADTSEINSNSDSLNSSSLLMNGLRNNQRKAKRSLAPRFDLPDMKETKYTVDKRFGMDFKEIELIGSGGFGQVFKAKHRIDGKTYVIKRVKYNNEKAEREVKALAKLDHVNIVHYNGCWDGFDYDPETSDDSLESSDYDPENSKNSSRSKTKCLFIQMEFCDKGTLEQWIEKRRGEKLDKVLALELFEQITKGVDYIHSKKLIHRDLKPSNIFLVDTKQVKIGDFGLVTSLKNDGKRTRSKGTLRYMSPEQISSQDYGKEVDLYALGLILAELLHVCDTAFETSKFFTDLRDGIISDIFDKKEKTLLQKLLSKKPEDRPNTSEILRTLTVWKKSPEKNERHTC
Procedure, shortened: as §1

[9] = biological target: T5, JNK2 (Homo sapiens, UniProt P45984); conditions: competition binding, % of control; read-out: Percent Control (100 uM Levosimendan)
T5 construct: gene MAPK9
Procedure, shortened: as §1

[10] = biological target: T6, CDK4-cyclinD3 (Homo sapiens, UniProt P11802); conditions: competition binding, % of control; read-out: Percent Control (100 uM Levosimendan)
T6 construct: cyclinD3
Procedure, shortened: as §1

[11] = biological target: T7, ASK2 (Homo sapiens, UniProt O95382); conditions: competition binding, % of control; read-out: Percent Control (100 uM Levosimendan)
T7 construct: gene MAP3K6
Procedure, shortened: as §1

[12] = biological target: T8, PYK2 (Homo sapiens, UniProt Q14289); conditions: competition binding, % of control; read-out: Percent Control (100 uM Levosimendan)
T8 construct: gene PTK2B
Procedure, shortened: as §1

[13] = biological target: T9, PIP5K2B (Homo sapiens, UniProt P78356); conditions: competition binding, % of control
T9 construct: gene PIP4K2B
T9 sequence (P78356 whole entry): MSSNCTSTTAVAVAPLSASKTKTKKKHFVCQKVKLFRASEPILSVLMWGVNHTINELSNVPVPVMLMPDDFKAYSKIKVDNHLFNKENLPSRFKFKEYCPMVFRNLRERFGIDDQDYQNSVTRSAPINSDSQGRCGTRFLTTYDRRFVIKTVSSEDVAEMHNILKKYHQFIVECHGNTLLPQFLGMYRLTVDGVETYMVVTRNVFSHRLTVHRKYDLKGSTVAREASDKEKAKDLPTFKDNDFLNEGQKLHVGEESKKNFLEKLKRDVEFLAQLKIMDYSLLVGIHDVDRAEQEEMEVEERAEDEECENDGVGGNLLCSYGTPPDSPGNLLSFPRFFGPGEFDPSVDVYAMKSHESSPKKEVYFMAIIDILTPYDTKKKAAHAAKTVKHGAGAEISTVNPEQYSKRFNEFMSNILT
Procedure, shortened: as §1

[14] = biological target: T10, SGK (Homo sapiens, UniProt O00141); conditions: competition binding, % of control
T10 construct: gene SGK1
T10 sequence (O00141 whole entry): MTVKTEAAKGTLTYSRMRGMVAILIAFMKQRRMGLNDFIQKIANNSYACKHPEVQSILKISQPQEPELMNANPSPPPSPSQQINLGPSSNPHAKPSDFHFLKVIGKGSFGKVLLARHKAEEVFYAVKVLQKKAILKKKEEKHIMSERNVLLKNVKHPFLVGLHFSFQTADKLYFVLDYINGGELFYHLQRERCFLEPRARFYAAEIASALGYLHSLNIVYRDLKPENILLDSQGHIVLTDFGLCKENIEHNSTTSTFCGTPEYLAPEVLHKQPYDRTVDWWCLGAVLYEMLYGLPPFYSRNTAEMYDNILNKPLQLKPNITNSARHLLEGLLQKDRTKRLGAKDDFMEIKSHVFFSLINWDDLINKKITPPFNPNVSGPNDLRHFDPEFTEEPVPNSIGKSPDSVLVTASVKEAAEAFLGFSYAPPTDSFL
Procedure, shortened: as §1

[15] = biological target: CDK7 (Homo sapiens, UniProt P50613); conditions: competition binding, % of control; read-out: Percent Control (100 uM Levosimendan)
CDK7, sequence (P50613 whole entry): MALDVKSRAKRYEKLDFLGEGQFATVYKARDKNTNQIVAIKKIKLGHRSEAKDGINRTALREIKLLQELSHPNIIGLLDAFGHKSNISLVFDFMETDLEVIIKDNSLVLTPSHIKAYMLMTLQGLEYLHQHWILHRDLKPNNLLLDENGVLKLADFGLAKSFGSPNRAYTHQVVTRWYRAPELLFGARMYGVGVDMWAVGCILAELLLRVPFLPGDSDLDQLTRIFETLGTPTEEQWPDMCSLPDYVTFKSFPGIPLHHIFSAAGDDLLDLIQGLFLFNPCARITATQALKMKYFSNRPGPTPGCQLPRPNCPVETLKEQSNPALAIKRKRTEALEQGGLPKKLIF
Procedure, shortened: as §1

[16] = biological target: T11, AMPK-alpha2 (Homo sapiens, UniProt P54646); conditions: competition binding, % of control; read-out: Percent Control (100 uM Levosimendan)
T11 construct: gene PRKAA2
Procedure, shortened: as §1

[17] = biological target: T12, RPS6KA4(Kin.Dom.1-N-terminal) (Homo sapiens, UniProt O75676); conditions: competition binding, % of control; read-out: Percent Control (100 uM Levosimendan)
T12 construct: Kin.Dom.1-N-terminal
Procedure, shortened: as §1

[18] = biological target: MST1R (Homo sapiens, UniProt Q04912); conditions: competition binding, % of control; read-out: Percent Control (100 uM Levosimendan)
MST1R, sequence (Q04912 whole entry): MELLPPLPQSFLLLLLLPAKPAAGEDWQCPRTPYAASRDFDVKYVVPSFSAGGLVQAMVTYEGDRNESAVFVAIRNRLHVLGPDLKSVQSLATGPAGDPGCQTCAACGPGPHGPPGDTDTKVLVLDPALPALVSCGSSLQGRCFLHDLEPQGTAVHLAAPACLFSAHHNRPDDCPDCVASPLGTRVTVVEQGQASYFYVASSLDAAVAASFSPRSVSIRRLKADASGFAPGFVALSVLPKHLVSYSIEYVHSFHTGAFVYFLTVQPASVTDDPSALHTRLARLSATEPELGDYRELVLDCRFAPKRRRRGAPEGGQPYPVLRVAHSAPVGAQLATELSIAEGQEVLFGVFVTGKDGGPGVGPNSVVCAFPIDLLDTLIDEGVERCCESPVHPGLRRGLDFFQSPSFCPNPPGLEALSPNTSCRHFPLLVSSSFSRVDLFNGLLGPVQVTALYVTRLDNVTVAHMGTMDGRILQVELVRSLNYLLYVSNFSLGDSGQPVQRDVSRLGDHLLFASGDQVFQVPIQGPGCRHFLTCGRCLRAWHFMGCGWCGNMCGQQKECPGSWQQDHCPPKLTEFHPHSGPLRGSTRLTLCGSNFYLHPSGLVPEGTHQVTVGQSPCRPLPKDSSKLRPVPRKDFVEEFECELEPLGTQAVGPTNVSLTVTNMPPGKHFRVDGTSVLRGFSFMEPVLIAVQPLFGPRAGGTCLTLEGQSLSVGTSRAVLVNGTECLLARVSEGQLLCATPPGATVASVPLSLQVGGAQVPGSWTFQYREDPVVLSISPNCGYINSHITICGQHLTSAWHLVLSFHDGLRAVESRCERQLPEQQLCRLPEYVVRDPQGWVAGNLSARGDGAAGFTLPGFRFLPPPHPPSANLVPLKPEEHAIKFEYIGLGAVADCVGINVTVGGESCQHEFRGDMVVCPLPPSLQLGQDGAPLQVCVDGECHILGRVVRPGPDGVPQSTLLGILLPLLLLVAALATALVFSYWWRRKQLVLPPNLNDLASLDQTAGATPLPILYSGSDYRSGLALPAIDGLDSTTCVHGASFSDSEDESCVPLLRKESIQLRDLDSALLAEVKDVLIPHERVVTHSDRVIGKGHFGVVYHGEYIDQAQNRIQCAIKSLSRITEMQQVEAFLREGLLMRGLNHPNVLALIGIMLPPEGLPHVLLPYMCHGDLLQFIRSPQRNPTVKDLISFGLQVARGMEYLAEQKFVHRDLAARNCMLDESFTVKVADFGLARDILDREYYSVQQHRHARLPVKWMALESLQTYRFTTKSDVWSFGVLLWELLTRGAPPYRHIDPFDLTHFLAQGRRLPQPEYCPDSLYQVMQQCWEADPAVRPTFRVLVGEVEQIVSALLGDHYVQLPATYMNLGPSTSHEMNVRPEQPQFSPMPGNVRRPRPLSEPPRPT
Procedure, shortened: as §1

[19] = read-out: Percent Control (10 uM Levosimendan)
[20] = read-out: Percent Control (100 uM Levosimendan)

Q: Which remaining binding at 100 µM [1] does the source give for `C[C@@H]1CC(=O)NN=C1c1ccc(NN=C(C#N)C#N)cc1` [levosimendan] here?
A: 57%

Q: And the remaining binding at 10 µM [2, 19]?
A: 84%

Q: And the remaining binding at 100 µM [2, 20]?
A: 43%

Q: And the remaining binding at 10 µM [3, 19]?
A: 77%

Q: And the remaining binding at 100 µM [3, 20]?
A: 26%

Q: And the remaining binding at 100 µM [4]?
A: 100%

Q: What about the remaining binding at 100 µM [5] of the same compound?
A: 74%

Q: What about the remaining binding at 100 µM [6] of the same compound?
A: 100%

Q: And the remaining binding at 100 µM [7]?
A: 100%

Q: And the remaining binding at 100 µM [8]?
A: 96%

Q: What about the remaining binding at 100 µM [9] of the same compound?
A: 100%

Q: What about the remaining binding at 100 µM [10] of the same compound?
A: 100%

Q: And the remaining binding at 100 µM [11]?
A: 80%

Q: And the remaining binding at 100 µM [12]?
A: 93%

Q: And the remaining binding at 10 µM [13, 19]?
A: 92%

Q: What about the remaining binding at 100 µM [13, 20] of the same compound?
A: 14%

Q: What about the remaining binding at 10 µM [14, 19] of the same compound?
A: 81%

Q: And the remaining binding at 100 µM [14, 20]?
A: 40%

Q: What about the remaining binding at 100 µM [15] of the same compound?
A: 100%

Q: And the remaining binding at 100 µM [16]?
A: 83%

Q: And the remaining binding at 100 µM [17]?
A: 53%

Q: What about the remaining binding at 100 µM [18] of the same compound?
A: 87%
